Laboratory results taken from patent US20240383953A1, “NOVEL NAN[…] NANOG PRION-LIKE REPEATS” (BAYLOR COLLEGE OF MEDICINE, priority 2021, published 2024).
Where two headings read alike, the source gives them in different places.

Legend:
[1] = system: Gata6-AF488 and Gata6-AF647 DNA; assay: Intermolecular diffusion smFRET DNA bridging; format: binding; settings: 250 nM NANOG WT
Method: (§1) FIGS. 6A-6G provide data related to intermolecular DNA bridging through NANOG assemblies. […] The peak at EFRET ˜0 corresponds to AF488-conjugated unbound/bound DNA. FIGS. 6E1-4 show representative cross-correlation FCCS curves of Gata6-AF488 and Gata6-AF647 with various concentrations of WT ((i) 0 nM; (ii) 63 nM; (iii) 875 nM) and W8A mutant ((iv) 875 nM). […] Nad and diffusion coefficients were derived and calculated from FCCS fits (Methods). […] Through prion-like assembly, NANOG can initiate intragenomic (promoter-enhancer) contacts, as well as connecting distant intergenomic loci to form superenhancer clusters with other TFs and coactivators (green/yellow).
To test the DNA bridging hypothesis, Applicant performed single molecule FRET (smFRET) diffusion experiments. Intermolecular diffusion smFRET is challenging due to low chance encounters at dilute pM concentrations. Gata6 DNAs were independently labeled with AF488 or AF647. […] However, in the presence of 250 nM NANOG WT.

[2] = molecular target: dsDNA GATA6-AF488/GATA6-AF647; assay: fEMSA with dsDNA; format: binding
Method: (§2) Basic residues, 3 Arg and 2 Lys, were incorporated for nucleic acid recognition. […] Similar results were obtained from two independent experiments. FIG. 8C (left panels) show photon bursts distribution of dsDNAs alone (GATA6-AF488 and GATA6-AF647; top) or with 7.5 μM (0.03 mg/mL) 1-4wRK peptide (bottom). Middle panels of FIG. 8C show FCCS curves for corresponding photon fluctuations shown in the left panels. […] Similar results were obtained from three independent experiments. […] Similar results were obtained from three independent experiments. […] Error bars were calculated from three independent measurements. […] Similar results were obtained from two independent experiments.
(§3) ThT binding to amyloid β-sheet emits maximally at ˜490 nm. Similar results were obtained from 2 independent experiments. […] Similar results were obtained from 2 independent experiments.
(§4) Applicant observed nucleic acid interactions by fluorescence electrophoretic mobility shift assays (fEMSA). […] Moreover, the 1-4wRK peptide was also potent in recognizing single stranded DNA (ssDNA (TG)6) and RNA (ssRNA (UUAGGG)4-AF488/AF594).
(§5) By EMSA, almost all DNAs were bound at […] or 0.03 mg/mL 1-3wRRK. […] This was further corroborated by fluorescence polarization measurements.

[3] = system: Gata6-AF488 and Gata6-AF647 DNA; assay: FCCS DNA bridging by NANOG; format: binding
Method: as §1
To further validate NANOG-dependent DNA bridging, Applicant resorted to fluorescence cross-correlation technique (FCCS). Binding of individual DNAs (differentially labeled with AF488 and AF647) to form a complex would result in correlated fluorescence signals.
FCCS experiments with various NANOG concentrations confirmed cross-correlation with as little as ˜30 nM WT NANOG (FIG. 6F). The increase in cross-correlated particles coincided with a decrease in molecular complex diffusion coefficient (bright lower line, FIG. 6F). Without being bound by theory, the decrease in cross-correlated particles at high NANOG concentrations may reflect competition for DNA with excess NANOG.

[4] = system: GATA6-AF488 and GATA6-AF647; assay: FCCS DNA bridging by peptides; format: binding
Method: as §2
ThT binding to amyloid β-sheet emits maximally at ˜490 nm. Similar results were obtained from 2 independent experiments. […]
Applicant also tested the minipeptides' ability to bring together independent DNA molecules in solution. Using Fluorescence Cross-Correlation Spectroscopy (FCCS), Applicant observed an absence of cross-correlation between differentially fluorescently labeled DNAs (GATA6-AF488 and GATA6-AF647) without the peptide. […]
The significant 1-3wRK DNA-bridging competency was further confirmed by FCCS titration data and burst analysis, where Applicant observed cross-correlation even at ˜30 nM 1-3wRRK. […] Applicant demarcated the LLPS regimes using turbidity assay (UV absorbance at 350 nm; FIG. 8J). […]

[5] = system: ssDNA (TG)6 and ssRNA (UUAGGG)4-AF488/AF594; assay: fEMSA with single stranded nucleic acids; format: binding; settings: immobilized in the gel wells
Method: as §2, §4

[6] = system: fluorescent proteins h6GeGFP and h6GmCherry; assay: Co-partitioning with fluorescent proteins; settings: h6GeGFP and h6GmCherry 5 μM
Method: as §2
Applicant used burst analysis to quantify sizes of the oligomeric species. The average fluctuations were assumed to represent monomeric species, and any degree of deviations from average were characterized as the oligomeric states. Applicant observed numerous heterogeneous oligomeric states that increased in molecular sizes with increasing peptide concentration (FIGS. 8D-8E). Because NANOG is also known as a ‘molecular hub’ protein capable of interactions with many proteins with its WR domain, Applicant tested whether the WR peptide mimetics could non-specifically recruit random proteins (e.g., fluorescent proteins h6GeGFP and h6GmCherry for convenient visualization). […]

DNA = assay: LLPS turbidity assay (UV absorbance at 350 nm); format: physicochemical
Method: as §3
The significant 1-3wRK DNA-bridging competency was further confirmed by FCCS titration data and burst analysis, where Applicant observed cross-correlation even at ˜30 nM 1-3wRRK. Applicant next investigated whether the peptides' ability to form nano-assemblies also correlated with their capacity to drive mesoscale condensates. Applicant demarcated the LLPS regimes using turbidity assay (UV absorbance at 350 nm; FIG. 8J). The LLPS data (presented in mg/mL concentration unit in FIG. 8J) reflected the behaviors observed at nanoscale level.

GATA6 dsDNA = assay: Fluorescence polarization binding measurements; settings: Hill binding equation, mean±SD
From the text: as §3
Since 1-3wRRK became soluble and much less aggregation-prone on its own, Applicant determined if the WR repeat (steric zipper region) was affected by changes in physical properties and still contributed towards recognizing DNA. Applicant compared its DNA binding capability to TAT and 1-4wRK by EMSA and fluorescence polarization measurements (FIGS. 9G-9H). Applicant observed that 1-3wRRK binds DNA more effectively than 1-4wRK, mostly likely due to the extra basic residues (FIGS. 8B, 9G, and 9H).
as §5

NANOG WT
proximity of separate DNAs [1]: ≤ 70 Å
Kd ([2]; full-length NANOG, for comparison, read-out: dsDNA affinity): 30 to 60 nM
cross-correlation of differentially labeled DNAs [3]: significant cross-correlation
lowest concentration giving cross-correlation [3]: ~30 nM

WSNQTWNNSTWSNQTQNIQSWSNHSRRRKK [1-4wRK]
cross-correlation (DNA bridging) ([4]; 0.9 μM peptides): small degree of cross-correlation
lowest peptide concentration giving cross-correlation ([4]; FCCS titration): 1 µM
peptide concentration giving completely bound peptide:nucleic acid complexes [5]: 60 to 250 nM
Kd ([2]; fEMSA, read-out: dsDNA affinity (50% free DNA)): ~1000 nM
peptide concentration giving visible precipitates of fluorescent proteins [6]: ~0.3 mg/mL
aggregation without DNA (DNA; 0.2 mg/mL peptide): aggregates even without DNA
potency in driving DNA:peptide LLPS (DNA; turbidity Abs350 nm>0.07 = LLPS positive): more effective than TAT at higher concentrations of DNA
cooperativity n (GATA6 dsDNA): 3.3±1.2
binding constant Ka (GATA6 dsDNA; n=3): 340 ± 110 nM
